The values below come from article PMC5351510 (Future Science OA, 2017).

Structures are written as SMILES. ≈ marks a conversion by molar mass, not a printed value. Where two headings read alike, the source gives them in different places.

Data set [1] in a line: Equilibrium solubility studies (shaker, HPTLC). The data set is classed as physicochemical. The settings on record: experimental, at 25°C, mean of three. As for the experimental part:
Equilibrium solubility is the most vital physicochemical property that reflects the bioavailability of a compound. […] The equilibrated samples were centrifuged at 5000 r.p.m. (1398 × g) for 10 min to remove any undissolved drug and the supernatant was analyzed using HPTLC at a λmax of 262 nm. All the media were prepared according to the composition reported by Dressman and co-workers.

Data set [2] in a line: Partition coefficient (log P), shake-flask octanol/water. It is filed as physicochemical. The settings on record: experimental, 25.0 ± 0.1°C. As for the experimental part: Lipophilicity is a molecular property of any compound that is vital to discern the extent of distribution in the body. The logarithm of octanol/water partition coefficient, in other words, log P, is the most extensively used parameter to quantify lipophilicity. The value of log P is a valuable predictor to determine the passive transport of drugs through the lipoid membranes of the human body. […] For this, first presaturation of the solvents (octanol and water) was conducted for 24 h. Then, Mgf in a concentration of 5 mg/100 ml was added to the equilibrated mixture. After separation of the equilibrated phases by centrifugation at 10,000 r.p.m. for 5 min, the concentration of the solute was determined in the aqueous phase using HPTLC at a λmax 262 nm for each sample:Equation 1 [drawing 2]

The nature of data set [3]: Determination of log D, aqueous phase pH 7.4. It is filed as physicochemical. The settings on record: octanol / physiological buffer (aqueous phase at pH 7.4), experimental. The source says:
Log D, the logarithm of distribution constant or apparent partition, therefore, is a better descriptor of the lipophilicity of an ionizable compound that is likely to be charged at the physiological pH [26]. This can be determined in a similar manner to log P, but the aqueous phase, instead of being pure water, is adjusted to pH 7.4 using a physiological buffer:Equation 2 [drawing 3]

The nature of data set [4]: In situ single pass intestinal perfusion studies. The data set is classed as in vivo, Wistar rats. The settings on record: both sexes, Wistar, other: in situ single pass perfusion of the jejunum; experimental, rat jejunum, perfusion rate 0.2 ml/min. As for the experimental part: The in situ single pass intestinal perfusion studies were performed in a manner reported previously by our group in the past. Three unisex Wistar rats (250–280 g) were fasted for at least 24 h prior to the study, while water was provided ad libitum. The animals were procured from University Centre Animal House, after obtaining the requisite approval from Animals Institutional Committee, Chandigarh (PU/IAEC/S/14/104). Anesthesia was induced by an intraperitoneal injection of thiopental sodium in the dose of 50 mg/kg of the body weight of the rats. After making an incision in the abdomen, provisions for inlet and outlet were made at proximal part of the jejunum, 2–4 cm below the ligament of Trietz and about 10 cm distal to the first incision. […] Finally, 1.5 ml of perfusate was added to the ethereal extract and the concentration of Mgf in the mixture was determined using HPTLC technique at 254 nm by applying the principles of Analytical Quality by Design. The value of effective permeability (Peff) was subsequently calculated using Equation 3 [31].Equation 3 [drawing 4]
where Q is the flow rate, Cin and Cout are the respective inlet and outlet concentrations, r is the radius of the intestine and l is the length of the intestine measured after completion of perfusion.

For data set [5], the target named is T1, MDR1 transporters (Homo sapiens, UniProt P08183).
T1 construct: overexpressed MDR1, MRP1 and BCRP membrane pumps on Caco-2 cells; endogenous in cells; host or cells: Caco-2 cells
Put plainly: P-gp efflux assay (multidrug resistance direct dye efflux kit), Rhodamine-123 dye. It is filed as cell-based. The settings on record: experimental, Caco-2 cells. As to the method: Furthermore, the multidrug resistance directs dye efflux assay kit (Chemicon® International, CA, USA and Serologicals® Corporations, GA, USA) was employed, in which the Caco-2 cells were loaded with rhodamine 123 (Rh-123) and diethyloxacarbocyanine (DiOC2) dyes in the presence or absence of vinblastine. In order to access the functional activity of the inhibition of overexpressed MDR1, MRP1 and BCRP membrane pumps on Caco-2 cells in the presence of Mgf, the fluorescence intensity was measured in a Tecan fluorescence microplate reader (Tecan Ltd, Männedorf, Switzerland) at an excitation wavelength of 485 nm and an emission wavelength of 530 nm. For the purpose, Caco-2 cells in the concentration of 2.5 × 10^5 were incubated with Rh-123 alone and with vinblastine, and Rh-123-loaded Mgf at 37°C to access the inhibitory activity of Mgf on MDR1 transporters. Likewise, to estimate the ability of Mgf to act as a substrate for BCRP transportors, DiOC2 dye was employed. On the similar heels, Caco-2 cells (2.5 × 10^5) were incubated with DiOC2 alone and with vinblastine, and DiOC2-loaded Mgf at 37°C.
(Caco-2 monolayers are a common model of the intestinal barrier.)

For data set [6] the following is noted: cited from earlier work.
For data set [7] the following is noted: at 45°C; cited from earlier work.
The conditions of data set [8]: cited from earlier work. This is another data set of the same source.
The test system of data set [9] is P-gp. The settings on record: cited from earlier work.

The term solubility denotes how much of the substance goes into solution per volume. Usually logP stands for a log measure of how a compound divides between an organic and an aqueous phase. Lower therefore signals a more hydrophilic compound. Usually logD stands for lipophilicity at a set pH, counting ionised and neutral species. Higher therefore signals a more lipophilic compound. As usually defined, the log P is the decadic logarithm of the partition coefficient of the neutral form, usually between octanol and water.

T1 sequence (P08183 whole entry): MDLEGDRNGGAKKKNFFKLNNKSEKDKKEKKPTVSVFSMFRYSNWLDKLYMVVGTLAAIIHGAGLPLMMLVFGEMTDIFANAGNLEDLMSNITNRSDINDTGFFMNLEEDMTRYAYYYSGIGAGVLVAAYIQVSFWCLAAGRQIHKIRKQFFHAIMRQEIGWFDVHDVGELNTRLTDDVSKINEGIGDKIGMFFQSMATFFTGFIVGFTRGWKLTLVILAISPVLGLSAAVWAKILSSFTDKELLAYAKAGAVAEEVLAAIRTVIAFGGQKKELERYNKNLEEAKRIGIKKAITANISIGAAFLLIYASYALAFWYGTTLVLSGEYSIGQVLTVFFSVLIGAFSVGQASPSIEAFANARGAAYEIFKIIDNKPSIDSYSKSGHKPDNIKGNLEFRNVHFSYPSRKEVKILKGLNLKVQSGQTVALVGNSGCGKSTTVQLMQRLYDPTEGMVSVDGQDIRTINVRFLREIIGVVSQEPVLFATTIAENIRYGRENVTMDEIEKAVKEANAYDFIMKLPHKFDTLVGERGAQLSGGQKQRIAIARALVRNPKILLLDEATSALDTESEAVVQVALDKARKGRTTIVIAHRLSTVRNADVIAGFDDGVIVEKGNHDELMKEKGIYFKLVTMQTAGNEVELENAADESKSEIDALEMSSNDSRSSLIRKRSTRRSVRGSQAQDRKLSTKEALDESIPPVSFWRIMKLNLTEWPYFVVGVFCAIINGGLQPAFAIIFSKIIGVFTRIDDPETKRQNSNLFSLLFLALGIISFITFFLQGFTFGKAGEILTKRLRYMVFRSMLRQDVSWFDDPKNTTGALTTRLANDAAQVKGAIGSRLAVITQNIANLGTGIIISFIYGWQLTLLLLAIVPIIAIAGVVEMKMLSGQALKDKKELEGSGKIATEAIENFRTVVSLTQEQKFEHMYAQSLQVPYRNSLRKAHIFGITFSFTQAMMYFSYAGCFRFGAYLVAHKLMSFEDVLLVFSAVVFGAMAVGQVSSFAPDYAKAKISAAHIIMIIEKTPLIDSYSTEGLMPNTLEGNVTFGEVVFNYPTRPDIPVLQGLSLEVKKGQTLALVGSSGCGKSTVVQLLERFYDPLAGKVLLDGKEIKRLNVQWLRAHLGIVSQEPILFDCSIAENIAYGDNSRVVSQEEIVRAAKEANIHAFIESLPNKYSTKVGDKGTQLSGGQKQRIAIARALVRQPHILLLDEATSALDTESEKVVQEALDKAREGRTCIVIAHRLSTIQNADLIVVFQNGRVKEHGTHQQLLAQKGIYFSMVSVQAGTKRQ

Consider `O=c1c2cc(O)c(O)cc2oc2cc(O)c([C@@H]3O[C@H](CO)[C@@H](O)[C@H](O)[C@H]3O)c(O)c12` [mangiferin, (1S)-1,5-Anhydro-1-(1,3,6,7-tetrahydroxy-9-oxo-9H-xanthen-2-yl)-D-glucitol], for which the solubility at 72 h in data set [1] (fasted-state simulated gastric fluid, read-out: Solubility in fasted-state simulated gastric fluid) is 140 µg/mL (≈ 331 µM); in data set [1] (fasted-state simulated intestinal fluid, fassif, thermodynamic from solid, read-out: Solubility in fasted-state simulated intestinal fluid), 1480 µg/mL (≈ 3500 µM); in data set [1] (fed-state simulated intestinal fluid, fessif, thermodynamic from solid, read-out: Solubility in fed-state simulated intestinal fluid), 3980 µg/mL (≈ 9420 µM); in data set [1] (thermodynamic from solid, water, read-out: Aqueous solubility) it was 380 µg/mL (≈ 900 µM). The logP in data set [2] was -0.65. Further, in data set [3], the logD is -0.79. This compound also had an effective permeability (Peff) in data set [4] of 16 ×10⁻⁶ cm/s. Further, the P-gp substrate entry in data set [5] and in data set [9] was “Yes” throughout. In data set [6] (plasma), the “AUC0–t rise in streptozotocin-induced diabetic rats compared with normal rats” value is listed as 2.35 fold. In [6] (plasma), the “Cmax rise in streptozotocin-induced diabetic rats compared with normal rats” value is on record as 2.79 fold. In addition, the Maximum plasma levels in data set [6] (rats, oral) was 715.04 ± 600.14 ng/mL. For the same compound, the “Time of maximum plasma levels after oral intake” value in data set [6] (rats, oral) is recorded as 0.72 h. Further, in data set [7], the Aqueous solubility is 0.25 mg/ml at 45 °C. Further, the “log P” value in data set [8] is -0.09 to -0.36.
